Patent US12404289B2 (Gilead Sciences, Inc., priority 2020, dated 2025)
Like-named read-outs stand apart in the source and are kept apart here.

How the values were obtained:
Format in all cases: cell-based
[1] = test system: Respiratory syncytial virus (RSV) strain A2; assay: RSV antiviral assay (HEp-2, 96 well); details: Table 3
[2] = test system: Respiratory syncytial virus (RSV) strain A2; assay: Hep-2 RSV2 384-well assay (EC50-HEP2-384); details: human respiratory syncytial virus, HEp-2, 96 h, HEp-2 cells, RSV A2, MOI=4, 4 days, Table 3
[3] = test system: SARS-CoV-2; assay: SARS-CoV-2 antiviral assay (A549-hACE2, Nano luciferase); details: A549-hACE2 cells, SARS-CoV2-Nano, MOI 0.025, 48 h, Table 4, read-out: EC50 SARS CoV2
[4] = human respiratory syncytial virus, HEp-2, 96 h, read-out: EC50 RSV HEP2 96, HEp-2 cells, RSV A2, MOI=4, 4 days, 96 well
[5] = Severe acute respiratory syndrome coronavirus 2, 48 h

In the case of `CC(C)C(=O)O[C@H]1[C@@H](OC(=O)C(C)C)[C@](C#N)(c2ccc3c(N)ncnn23)O[C@@H]1COP(=O)(N[C@@H](C)C(=O)OC1CCOCC1)Oc1ccc(C(C)(C)C)cc1` (stereo partly drawn) [Example 90, [(2R,3R,4R,5R)-5-(4-aminopyrrolo[2,1-f][1,2,4]triazin-7-yl)-2-[[(4-tert-butylphenoxy)-[[(1S)-1-methyl-2-oxo-2-tetrahydropyran-4-yloxy-ethyl]amino]phosphoryl]oxymethyl]-5-cyano-4-(2-methylpropanoyloxy)tetrahydrofuran-3-yl] 2-methylpropanoate], the EC50 [1, 4] is reported as 20.4 nM and the EC50 [2] is reported as 124 nM.

With `CC(=O)O[C@H]1[C@@H](OC(C)=O)[C@](C#N)(c2ccc3c(N)ncnn23)O[C@@H]1COP(=O)(N[C@@H](C)C(=O)OCC1CCC1)Oc1ccccc1` (stereo partly drawn) [Example 145, (2R,3R,4R,5R)-2-(4-aminopyrrolo[2,1-f][1,2,4]triazin-7-yl)-2-cyano-5-((((((S)-1-(cyclobutylmethoxy)-1-oxopropan-2-yl)amino)(phenoxy)phosphoryl)oxy)methyl)tetrahydrofuran-3,4-diyl Diacetate] the EC50 [3, 5] was 101 nM and the EC50 [2] was 35 nM.

Work on `CC(=O)O[C@H]1[C@@H](OC(C)=O)[C@](C#N)(c2ccc3c(N)ncnn23)O[C@@H]1CO[P@@](=O)(N[C@@H](C)C(=O)O[C@H]1CCOC1)Oc1ccc(C(C)(C)C)cc1` [Example 37, (2R,3R,4R,5R)-2-(4-aminopyrrolo[2,1-f][1,2,4]triazin-7-yl)-5-((((4-(tert-butyl)phenoxy)(((S)-1-oxo-1-(((S)-tetrahydrofuran-3-yl)oxy)propan-2-yl)amino)phosphoryl)oxy)methyl)-2-cyanotetrahydrofuran-3,4-diyl Diacetate] yielded an EC50 [3, 5] of 282 nM and an EC50 [2] of 187 nM.

For `CCC(CC)COC(=O)[C@H](C)NP(=O)(OC[C@H]1O[C@@](C#N)(c2ccc3c(N)ncnn23)[C@H](O)[C@@H]1O)Oc1ccccn1` (single isomer, unassigned) [Example 175a], the EC50 [3] was 3360 nM and the EC50 [2] was 5000 nM.

`C[C@H](NP(=O)(OC[C@H]1O[C@@](C#N)(c2ccc3c(N)ncnn23)[C@H](O)[C@@H]1O)Oc1ccc(C(C)(C)C)cc1)C(=O)OC1CCC1` (stereo partly drawn) [Example 31, Cyclobutyl ((((2R,3S,4R,5R)-5-(4-aminopyrrolo[2,1-f][1,2,4]triazin-7-yl)-5-cyano-3,4-dihydroxytetrahydrofuran-2-yl)methoxy)(4-(tert-butyl)phenoxy)phosphoryl)-L-alaninate] was tested, and the EC50 [3, 5] was 250 nM and the EC50 [2] was 53.2 nM.

Compound `CCC(C)(C)CCOC(=O)[C@H](C)NP(=O)(OC[C@H]1O[C@@](C#N)(c2ccc3c(N)ncnn23)[C@H](O)[C@@H]1O)Oc1ccc(C(C)(C)C)cc1` (stereo partly drawn) [Example 154, 3,3-dimethylpentyl ((((2R,3S,4R,5R)-5-(4-aminopyrrolo[2,1-f][1,2,4]triazin-7-yl)-5-cyano-3,4-dihydroxytetrahydrofuran-2-yl)methoxy)(4-(tert-butyl)phenoxy)phosphoryl)-L-alaninate] has an EC50 [3, 5] of 330 nM and an EC50 [2] of 105 nM.

`CCC(=O)O[C@H]1[C@@H](OC(=O)CC)[C@](C#N)(c2ccc3c(N)ncnn23)O[C@@H]1COP(=O)(N[C@@H](C)C(=O)OC1CC(C)(C)C1)Oc1ccc(C(C)(C)C)cc1` (stereo partly drawn) [Example 95, (2R,3R,4R,5R)-2-(4-aminopyrrolo[2,1-f][1,2,4]triazin-7-yl)-5-((((4-(tert-butyl)phenoxy)(((S)-1-(3,3-dimethylcyclobutoxy)-1-oxopropan-2-yl)amino)phosphoryl)oxy)methyl)-2-cyanotetrahydrofuran-3,4-diyl Dipropionate] was tested, and the EC50 [3, 5] was 264 nM and the EC50 [2] was 61.8 nM.

In the case of `CCC(C)(C)CCOC(=O)[C@H](C)NP(=O)(OC[C@H]1O[C@@](C#N)(c2ccc3c(N)ncnn23)[C@H](OC(C)=O)[C@@H]1OC(C)=O)Oc1ccccc1` (stereo partly drawn) [Example 106a, (2R,3R,4R,5R)-2-(4-aminopyrrolo[2,1-f][1,2,4]triazin-7-yl)-2-cyano-5-((((((S)-1-((3,3-dimethylpentyl)oxy)-1-oxopropan-2-yl)amino)(phenoxy)phosphoryl)oxy)methyl)tetrahydrofuran-3,4-diyl Diacetate], the EC50 [3, 5] is reported as 83.1 nM and the EC50 [2] is reported as 46.8 nM.

`CCC(CC)COC(=O)[C@H](C)NP(=O)(OC[C@H]1O[C@@](C#N)(c2ccc3c(N)ncnn23)[C@H](O)[C@@H]1O)Oc1ccc2ccccc2c1` (single isomer, unassigned) [Intermediate S3-b] showed an EC50 ([1]; read-out: EC50 RSV HEP2 96, HEp-2 cells, RSV A2, MOI=4, 4 days, 96 well) of 18.8 nM and an EC50 [2] of 68 nM.

Work on `C[C@H](NP(=O)(OC[C@H]1O[C@@](C#N)(c2ccc3c(N)ncnn23)[C@H](O)[C@@H]1O)Oc1ccc(C(C)(C)C)cc1)C(=O)OCC1CC1` (stereo partly drawn) [Example 101a, Cyclopropyl methyl ((((2R,3S,4R,5R)-5-(4-aminopyrrolo[2,1-f][1,2,4]triazin-7-yl)-5-cyano-3,4-dihydroxytetrahydrofuran-2-yl)methoxy)(4-(tert-butyl)phenoxy)phosphoryl)-L-alaninate] yielded an EC50 [3, 5] of 148 nM and an EC50 [2] of 41.1 nM.

In the case of `CCC(=O)O[C@H]1[C@@H](OC(=O)CC)[C@](C#N)(c2ccc3c(N)ncnn23)O[C@@H]1COP(=O)(N[C@@H](C)C(=O)OCC1CC1)Oc1ccc(C(C)(C)C)cc1` (stereo partly drawn) [Example 103b, (2R,3R,4R,5R)-2-(4-aminopyrrolo[2,1-f][1,2,4]triazin-7-yl)-5-((((4-(tert-butyl)phenoxy)(((S)-1-(cyclopropylmethoxy)-1-oxopropan-2-yl)amino)phosphoryl)oxy)methyl)-2-cyanotetrahydrofuran-3,4-diyl Dipropionate], the EC50 [3, 5] is reported as 363 nM and the EC50 [2] is reported as 42 nM.

`C[C@H](NP(=O)(OC[C@H]1O[C@@](C#N)(c2ccc3c(N)ncnn23)[C@H](O)[C@@H]1O)Oc1ccc(C(C)(C)C)cc1)C(=O)OCC1CCCCC1` (stereo partly drawn) [Example 156, Cyclohexylmethyl ((((2R,3S,4R,5R)-5-(4-aminopyrrolo[2,1-f][1,2,4]triazin-7-yl)-5-cyano-3,4-dihydroxytetrahydrofuran-2-yl)methoxy)(4-(tert-butyl)phenoxy)phosphoryl)-L-alaninate] showed an EC50 [3, 5] of 363 nM and an EC50 [2] of 195 nM.

Work on `CCOC(=O)[C@H](C)NP(=O)(OC[C@H]1O[C@@](C#N)(c2ccc3c(N)ncnn23)[C@H](OC(=O)C(C)C)[C@@H]1OC(=O)C(C)C)Oc1ccc(C23CC(C2)C3)cc1` (stereo partly drawn) [Example 43, (2R,3R,4R,5R)-2-(4-aminopyrrolo[2,1-f][1,2,4]triazin-7-yl)-5-((((4-(bicyclo[1.1.1]pentan-1-yl)phenoxy)(((S)-1-ethoxy-1-oxopropan-2-yl)amino)phosphoryl)oxy)methyl)-2-cyanotetrahydrofuran-3,4-diyl bis(2-methylpropanoate)] yielded an EC50 [3, 5] of 168 nM and an EC50 [2] of 62.8 nM.

Compound `C[C@@H](CC(=O)OC1CCC1)NP(=O)(OC[C@H]1O[C@@](C#N)(c2ccc3c(N)ncnn23)[C@H](O)[C@@H]1O)Oc1ccc(C(C)(C)C)cc1` (stereo partly drawn) [Example 165, cyclobutyl (3S)-3-(((((2R,3S,4R,5R)-5-(4-aminopyrrolo[2,1-f][1,2,4]triazin-7-yl)-5-cyano-3,4-dihydroxytetrahydrofuran-2-yl)methoxy)(4-(tert-butyl)phenoxy)phosphoryl)amino)butanoate] has an EC50 [3, 5] of 10000 nM and an EC50 [2] of 5000 nM.

Work on `CCC(=O)O[C@H]1[C@@H](OC(=O)CC)[C@](C#N)(c2ccc3c(N)ncnn23)O[C@@H]1COP(=O)(N[C@@H](C)C(=O)OCC(C)C)Oc1ccc(C(C)(C)C)cc1` (stereo partly drawn) [Example 138, (2R,3R,4R,5R)-2-(4-aminopyrrolo[2,1-f][1,2,4]triazin-7-yl)-5-((((4-(tert-butyl)phenoxy)(((S)-1-isobutoxy-1-oxopropan-2-yl)amino)phosphoryl)oxy)methyl)-2-cyanotetrahydrofuran-3,4-diyl Dipropionate] yielded an EC50 [3, 5] of 342 nM and an EC50 [2] of 36.6 nM.

In the case of `C[C@H](NP(=O)(OC[C@H]1O[C@@](C#N)(c2ccc3c(N)ncnn23)[C@H](O)[C@@H]1O)Oc1ccc(C(C)(C)C)cc1)C(=O)OCCC(C)(C)C` (stereo partly drawn) [Example 61, 3,3-dimethylbutyl (2S)-2-[[[(2R,3S,4R,5R)-5-(4-aminopyrrolo[2,1-f][1,2,4]triazin-7-yl)-5-cyano-3,4-dihydroxy-tetrahydrofuran-2-yl]methoxy-(4-tert-butylphenoxy)phosphoryl]amino]propanoate], the EC50 [1, 4] is reported as 36.7 nM and the EC50 [2] is reported as 72.4 nM.

In the case of `CCC(=O)O[C@H]1[C@@H](OC(=O)CC)[C@](C#N)(c2ccc3c(N)ncnn23)O[C@@H]1COP(=O)(N[C@@H](C)C(=O)OCCC(C)(C)CC)Oc1ccccc1` (stereo partly drawn) [Example 105a, (2R,3R,4R,5R)-2-(4-aminopyrrolo[2,1-f][1,2,4]triazin-7-yl)-2-cyano-5-((((((S)-1-((3,3-dimethylpentyl)oxy)-1-oxopropan-2-yl)amino)(phenoxy)phosphoryl)oxy)methyl)tetrahydrofuran-3,4-diyl Dipropionate], the EC50 [3, 5] is reported as 133 nM and the EC50 [2] is reported as 54.6 nM.

With `CC(=O)O[C@H]1[C@@H](OC(C)=O)[C@](C#N)(c2ccc3c(N)ncnn23)O[C@@H]1COP(=O)(N[C@@H](C)C(=O)OC1CC2(CCCC2)C1)Oc1ccc(C(C)(C)C)cc1` (stereo partly drawn) [Example 98a, (2R,3R,4R,5R)-2-(4-aminopyrrolo[2,1-f][1,2,4]triazin-7-yl)-5-((((4-(tert-butyl)phenoxy)(((S)-1-oxo-1-(spiro[3.4]octan-2-yloxy)propan-2-yl)amino)phosphoryl)oxy)methyl)-2-cyanotetrahydrofuran-3,4-diyl Diacetate] the EC50 [3, 5] was 176 nM and the EC50 [2] was 62.1 nM.
